In US10865222B2, “Neisseria gonorrhoeae therapeutic based on CMP-nonulosonate sugars” (priority 2014, dated 2020):
Entries after “also recorded” stand apart in the source; their conditions may differ.

What was measured:
[1] = molecular target: T1, Lst sialyltransferase from N. gonorrhoeae F62 (Neisseria gonorrhoeae, UniProt P72074); assay: Lst sialyltransferase acceptor specificity with CMP-Neu5Ac and CMP-Leg5Ac7Ac donors (TLC); type: biochemical; conditions: for removal of the nonulosonate from modified LacNAc acceptors by Lst over time: 2 h versus 20 h
T1 construct: made in house; host or cells: Escherichia coli
T1 sequence (P72074 whole entry): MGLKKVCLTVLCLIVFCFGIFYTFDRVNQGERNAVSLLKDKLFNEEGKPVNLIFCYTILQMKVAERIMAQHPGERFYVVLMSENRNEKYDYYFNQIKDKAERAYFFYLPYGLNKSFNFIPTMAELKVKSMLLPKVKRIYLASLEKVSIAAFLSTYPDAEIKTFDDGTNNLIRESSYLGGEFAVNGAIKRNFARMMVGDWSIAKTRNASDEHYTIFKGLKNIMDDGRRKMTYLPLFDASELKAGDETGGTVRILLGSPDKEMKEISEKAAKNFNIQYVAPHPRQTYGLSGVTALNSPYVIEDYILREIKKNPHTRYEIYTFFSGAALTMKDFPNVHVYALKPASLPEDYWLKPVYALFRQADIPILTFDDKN
Protocol: (§1) FIG. 11. N. gonorrhoeae Lst sialyltransferase efficiently legylates a LacNAc acceptor. The acceptor specificity of N. gonorrhoeae Lst sialyltransferase was assessed using CMP-Neu5Ac and CMP-Leg5Ac7Ac donors. The various acceptors tested were LacNAc or Galβ-1,4-GlcNAc-β-FCHASE, Lacto-N-biose or Galβ-1,3-GlcNAc-β-FCHASE, TAg or Galβ-1,3-GalNAc-α-FCHASE, and Pk or Galα-1,4-Galβ-1,4-Glc-β-FCHASE. Lst enzyme preparations (2.5 μg per assay) were incubated with 2.5 pmoles of each acceptor with either 3 mM CMP-Neu5Ac or 3 mM CMP-Leg5Ac7Ac for either 2 or 20 h as indicated. Reactions were then examined by TLC. Arrows indicate the general vicinity of FCHASE acceptors (top spots), whereas arrowheads indicate the general vicinity of modified FCHASE acceptors (bottom spots—enzyme product).
as §1, with “The” for “FIG. 11. N. gonorrhoeae Lst sialyltransferase efficiently legylates a LacNAc acceptor. The”, “product) (FIG. 11).” for “product).”
Lst sialyltransferase from N. gonorrhoeae F62 was recombinantly produced in Escherichia coli. Total membranes were isolated by ultracentrifugation at 100,000×g, resuspended in 0.2% Triton X-100, 50 mM Tris pH 7.5, 100 mM NaCl and incubated for 2 h at 4° C. […] N. gonorrhoeae Lst enzymatic assays were performed using 2.5 pmoles of 4 different FCHASE acceptors; LacNAc or Galβ-1,4-GlcNAc-β-FCHASE, Lacto-N-biose or Galβ-1,3-GlcNAc-β-FCHASE, TAg or Galβ-1,3-GalNAc-α-FCHASE, Pk or Galα-1,4-Galβ-1,4-Glc-β-FCHASE. CMP-Neu5Ac donor assays contained 50 mM Tris pH 7.5, whereas CMP-Leg5Ac7Ac donor assays contained 50 mM MES pH 6. All reactions contained 10 mM MnCl2, 3 mM CMP-sugar donor and 2.5 μg Lst enzyme. Reactions were incubated at 30° C. for either 2 h or 20 h as indicated. Upon completion of the reactions, stop solution was added (final concentration of 0.5% SDS, 5 mM EDTA, 25% acetonitrile) and an aliquot was run on TLC using EtOAc:MeOH:H2O:HOAc 4:2:1:0.1 as the mobile phase.

N. gonorrhoeae F62 ΔIgtD = assay: Whole cell ELISA for Ab binding and complement component deposition; type: cell-based; conditions: for complement deposition (C3, C4 and fB) and Ig binding: 3.3% and 10% NHS; for Neu5Ac-mediated decrease in IgG binding and complement deposition (C4, C3, factor Bb): analogue 20, 2 or 0.2 μg/ml 15 min after CMP-Neu5Ac 20 μg/ml, 10% and 3.3% NHS
Protocol: FIG. 4. Complement C3 and C4 deposition on, and factor B binding to N. gonorrhoeae bearing nonulosonic acid analogues on LOS. N. gonorrhoeae F62 ΔIgtD was grown in media alone (open bars), or media supplemented with 20 μg/ml (˜30 μM) of each of the indicated CMP-nonulosonates. Bacteria were incubated with either 3.3% or 10% NHS at 37° C. for 10 min and IgG and IgM binding, and C3, C4 and factor B deposited on bacteria were measured by whole cell ELISA. Data with 3.3% and 10% NHS is shown by hatched and solid bars, respectively. Measurement of gonococcal H.8 lipoprotein antigen was performed to ensure similar bacterial capture to microtiter wells. The mean (SD) of triplicate observations is shown.
FIG. 6. CMP-Neu5Ac9Az and CMP-Leg5Ac7Ac interfere with inhibition of the classical and alternative pathways of complement mediated by CMP-Neu5Ac. N. gonorrhoeae F62 ΔIgtD was incubated with 20 μg/ml (˜30 μM) CMP-Neu5Ac, followed in 15 min by the addition of CMP-Neu5Ac9Az or CMP-Leg5Ac7Ac (at concentrations of 20, 2 or 0.2 μg/ml final) and bacteria were incubated for 2 h as described in FIG. 5. Bacteria were incubated in 10% NHS and Ab binding and complement deposition studies were carried out by ELISA as described in FIG. 4. The mean (SD) of two independent experiments is shown.
Binding of IgG and IgM to, and deposition of complement components C3, C4 and factor B on N. gonorrhoeae F62 ΔIgtD grown in the presence of the following CMP-nonulosonates was examined based on results of bactericidal assays and fH binding. […] N. gonorrhoeae F62 ΔIgtD with an unmodified (unsialylated) LNT LOS was used as the control serum sensitive strain. Experiments were carried out using serum concentrations of 10% and 3.3%, which represented the serum concentrations that produced discriminating phenotypes with Neu5Ac9Ac and Neu5Gc8Me.
To define the mechanism whereby Neu5Ac9Az and Leg5Ac7Ac blocked complement resistance by Neu5Ac, we studied Ab binding to, and complement component deposition on N. gonorrhoeae F62 ΔIgtD that was incubated with CMP-Neu5Ac (20 μg/ml), followed 15 min later with either CMP-Neu5Ac9Az or CMP-Leg5Ac7Ac at concentrations of 20, 2 or 0.2 μg/ml. Controls included bacteria grown in the absence of any CMP-nonulosonate, or bacteria grown in CMP-Neu5Ac alone.
C3 and C4 fragment deposition on, and factor B binding to bacteria were measured by whole cell ELISA as described previously (14, 15). Briefly, 2×10^8 organisms in HBSS^++ were incubated with NHS (at concentrations of 3.3% or 10%) in a reaction volume of 100 μl for 10 min at 37° C. This time point was chosen based on the kinetics of complement deposition on gonococci in previously published data (15). Reactions were stopped after 10 min by washing three times with ice-cold HBSS containing 5 mM phenylmethylsulfonyl fluoride at 4° C. Organisms were resuspended in 200 μl of the same buffer, and 50 μl of each sample applied per well of a 96-well U-bottomed polystyrene microtiter plate (Dynatech Laboratories, Inc., Chantilly, Va.) and incubated for 3 h at 37° C. Plates were washed with PBS containing 0.05% Tween 20. Primary antibodies (polyclonal goat anti-human C3, C4 and factor B) were diluted in PBS, and secondary antibodies diluted in PBS-0.05% Tween 20 prior to use. To ensure similar capture of bacteria incubated under different conditions, the amount of gonococcal H.8 antigen (16) expression using MAb 2-8C-4-1 (13), followed by anti-mouse IgG-alkaline phosphatase conjugate, was measured.

[2] = 10% serum, compared with unsialylated F62 ΔIgtD
[3] = CMP-nonulosonate 20 μg/ml, NHS 3.3% or 10%

Row | Compound | product conversion of LacNAc acceptor ([1]; 3 mM CMP-sugar donor, 2.5 μg Lst) [%] | removal of the nonulosonate from modified LacNAc acceptors by Lst over time [1] | complement deposition (C3, C4 and fB) and Ig binding (N. gonorrhoeae F62 ΔIgtD; CMP-nonulosonate 20 μg/ml) | Neu5Ac-mediated decrease in IgG binding and complement deposition (C4, C3, factor Bb) (N. gonorrhoeae F62 ΔIgtD) | C3, C4 and factor B deposition (N. gonorrhoeae F62 ΔIgtD; 3.3% serum) | C3, C4 and factor B deposition (N. gonorrhoeae F62 ΔIgtD; [2]) | IgG binding (N. gonorrhoeae F62 ΔIgtD; [3]) | utilization of Lacto-N-biose, TAg and Pk acceptors ([1]; 3 mM CMP-sugar donor, 2 or 20 h) | IgM binding (N. gonorrhoeae F62 ΔIgtD; [3])
1 | 5,7-diacetamido-3,5,7,9-tetradeoxy-D-glycero-D-galacto-nonulosonic acid [CMP-Leg5Ac7Ac] | ~100 | this was not observed | highest levels of complement deposition and Ig binding | least amount of complement inhibition; also recorded: blocked this decrease | – | – | – | – | –
2 | CC(=O)N[C@H]1[C@H]([C@H](O)[C@H](O)COC(C)=O)OC(OP(=O)(O)OC[C@H]2O[C@@H](n3ccc(N)nc3=O)[C@H](O)[C@@H]2O)(C(=O)O)C[C@@H]1O (stereo partly drawn) [CMP-Neu5Ac9Ac, CMP-5-acetamido-9-O-acetyl-3,5-dideoxy-D-glycero-D-galacto-nonulosonic acid] | – | – | – | – | low levels | only a modest decline | reduced IgG binding | – | –
3 | CC(=O)N[C@H]1[C@H]([C@H](O)[C@H](O)CN=[N+]=[N-])OC(OP(=O)(O)OC[C@H]2O[C@@H](n3ccc(N)nc3=O)[C@H](O)[C@@H]2O)(C(=O)O)C[C@@H]1O (stereo partly drawn) [CMP-Neu5Ac9Az, CMP-5-acetamido-9-azido-3,5,9-trideoxy-D-glycero-D-galacto-nonulosonic acid] | – | – | highest levels of complement deposition and Ig binding | blocked this decrease | – | – | – | – | –
4 | CC(=O)NC1C(O)CC(OP(=O)(O)OCC2OC(n3ccc(N)nc3=O)C(O)C2O)(C(=O)O)OC1C(O)C(O)CO [CMP-Neu5Ac, CMP-5-acetamido-3,5-dideoxy-D-glycero-D-galacto-nonulosonic acid, reference compound] | – | can remove Neu5Ac from modified LacNAc acceptors over time | maximal complement inhibition | – | – | – | decreased IgG binding substantially | all but TAg could be efficiently utilized | small but reproducible decrease
5 | COC(CO)C(O)C1OC(OP(=O)(O)OCC2OC(n3ccc(N)nc3=O)C(O)C2O)(C(=O)O)CC(O)C1NC(=O)CO [CMP-Neu5Gc8Me, CMP-5-hydroxyacetamido-8-O-methyl-3,5-dideoxy-D-glycero-D-galacto-nonulosonic acid] | – | – | – | – | low levels | only a modest decline | reduced IgG binding | – | –
